What was measured:
Assay type in all cases: cell-based
[1] = system: Mycobacterium marinum (ATCC # 927); assay: Mycobacterium marinum growth control, optical absorbance at 660 nm (Example 3); conditions: 72 hours
Procedure: The impact of these N-alkyl alkanolamines on the control of the bacterial species Mycobacterium marinum (ATCC # 927) is given in Table 3. Bacterial concentration in the experimental media was monitored indirectly via optical absorbance at 660 nm. The values reported are end-point optical densities in milliOD units after 72 hours. The media consisted of a standardized solution of clear nutrient broth (Middlebrook 7H 10 with OADC supplement), amine, buffer (Tris) and water. The pH was adjusted initially to 8.5 with Tris buffer. The first column in Table 3 gives the amine concentration in parts per million by weight. In all cases, the values are averages of at least three replicates. The final row of Table 3 gives an estimate of the concentration range in which the amine in question starts to inhibit the growth of this bacterial species (minimum inhibitor concentration MIC).

[2] = system: Mycobacterium smegmatis (ATCC # 19420); assay: Mycobacterium smegmatis growth control, optical absorbance at 660 nm (Example 2); conditions: 48 hours
Procedure: The impact of these N-alkyl alkanolamines on the control of the bacterial species Mycobacterium smegmatis (ATCC # 19420) is given in the Table 2. Bacterial concentration in the experimental media was monitored indirectly via optical absorbance at 660 nm. The values reported are end-point optical densities in milliOD units after 48 hours. The media consisted of a standardized solution of clear nutrient broth (Middlebrook 7H10 with OADC supplement), amine, buffer (Tris) and water. The pH was adjusted initially to 8.5 with Tris buffer. The first column in the Table gives the amine concentration in parts per million by weight. The final two columns give data for cells that also contained 2 grams per liter of boric acid. In all cases, the values are averages of at least three replicate runs. The final row of Table 2 gives an estimate of the concentration range in which the amine in question starts to inhibit the growth of this bacterial species (minimum inhibitor concentration MIC).

[3] = system: Mycobacterium smegmatis (ATCC # 19420); assay: Mycobacterium smegmatis growth control, optical absorbance at 590 nm with tetrazolium dye (Example 1); conditions: compared with AMP (2-amino-2-methyl-1-propanol)
[4] = with 2 grams per liter of boric acid

For `CCCCNCCO` [BAE, butylaminoethanol], the “MIC (minimum inhibitor concentration), estimated concentration range in which the amine starts to inhibit growth” value (from here on “MIC (minimum inhibitor concentration)”) [1] was greater than 4000 ppm.

For `C1CCC(NC2CCCCC2)CC1` [DCHA, Dicyclohexylamine, reference compound], the “MIC (minimum inhibitor concentration)” value ([2]; no boric acid) was 1500-2000 ppm, the “MIC (minimum inhibitor concentration)” value [2, 4] was 1000-2000 ppm and the “MIC (minimum inhibitor concentration)” value [1] was greater than 4000 ppm.

In the case of `CCCCCCCCNCCO` [OAE, octylaminoethanol], the “effectiveness against Mycobacteria, in words” value [3] is reported as “markedly more effective than AMP”, the “MIC (minimum inhibitor concentration)” value ([2]; no boric acid) is reported as less than 500 ppm and the “MIC (minimum inhibitor concentration)” value [2, 4] is reported as less than 500 ppm. For the same compound, the “MIC (minimum inhibitor concentration)” value [1] was 1200-2000 ppm.

For `CCCCCCCCN(CCO)CCO` [ODEA, Octyldiethanolamine], the “MIC (minimum inhibitor concentration)” value ([2]; no boric acid) was 500-1000 ppm and the “MIC (minimum inhibitor concentration)” value [1] was 1200-2000 ppm.

Source: patent US20050107270A1, “Alkyl ethanolamines for the control of mycobacteria in functional fluid” (priority 2003, published 2005)
